Data taken from patent US20230322724A1, “HETEROCYCLIC COMPOUNDS AS CBP/EP300 BROMODOMAIN INHIBITORS” (AURIGENE ONCOLOGY LIMITED, priority 2020, published 2023).
pIC50: −log10 of the molar value. Read-outs that look alike come from different tables or passages of the source.

Assays:
[1] = molecular target: T1, recombinant CREBBP bromodomain (Homo sapiens, UniProt Q92793); assay: CBP TR-FRET displacement assay; format: binding; conditions: for pIC50: dose-response, read-out: IC50 (group A, B, C)
T1 construct: recombinant CREBBP bromodomain obtained from BPS Bioscience, USA; purchased BPS Bioscience, USA
Summary of the method: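 CREBBP bromodomain (50 nM) preincubated 30 min at room temperature with 500 nM biotinylated ligand in HEPES pH 7.5 buffer with TCEP, then 60 min with compound. Eu-anti-His/APC-streptavidin TR-FRET 665/615 nm ratio read; IC50 from sigmoidal dose-response fit.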

[2] = molecular target: T2, recombinant BRD4 FL bromodomain (Homo sapiens, UniProt O60885); assay: BRD4 FL TR-FRET displacement assay; format: binding; conditions: for inhibition at 10 µM: read-out: % Inhibition (10 μM); for pIC50: dose-response, read-out: IC50 (group A, B, C)
T2 construct: fused on or other part: 6xHis tag, inferred from detection with Mab ANTI 6HIS-XL665
Protocol: The potency of compounds to inhibit BRD4 FL enzyme was tested in a TR-FRET displacement assay using recombinant BRD4 FL bromodomain obtained In-house. The assay buffer was 50 mM HEPES (pH 7.5), 50 mM NaCl, 500 μM CHAPS. 10 nM of BRD4 FL & 300 nM of Biotinylated Acetyl histone H4 (Lys 5, 8, 12, 16) (Millipore, USA) was incubated at room temperature for 30 minutes, the reaction was initiated by adding the pre-incubated enzyme ligand mixture to the test compounds. After 30 min incubation, the reaction was stopped by the addition of stop mix containing 1 nM of Europium Streptavidin cryptate (Cisbio, USA) and 5 nM of Mab ANTI 6HIS-XL665 (Cisbio, USA) dilutes in assay buffer containing 2.4M Potassium Fluoride. Fluorescence emission of the samples at 665 and 615 nm were measured at an excitation of 340 nm and their ratio was plotted against the compound concentrations to generate dose-response curve. The percent inhibition of the test compounds is calculated using the ratio of enzyme activity controls.
Selected compounds of the present invention were screened in the above-mentioned assay procedures and IC50 values were determined by fitting the dose-response data to sigmoidal curve fitting equation using Graph pad prism software V7.

T1 sequence (Q92793 1085-1192 limits assumed): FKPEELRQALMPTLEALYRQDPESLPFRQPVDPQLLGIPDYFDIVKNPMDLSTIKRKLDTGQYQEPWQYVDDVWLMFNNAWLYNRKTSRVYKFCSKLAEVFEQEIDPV

CNC(=O)C1CCN(c2cc3c(cc2C#N)N(c2cc(OC)cc4c2cc(C)c(=O)n4C)CCN3C)CC1 [Example 26] showed a pIC50 [1] greater than 7.30 and an inhibition at 10 µM ([2]; BRD4 FL, compound at 10 μM) of 24%.
Cc1cc2c(N3CCCc4cc(-c5cnn(C)c5)c(C(F)F)cc43)nc(C3=CCOCC3)cc2n(C)c1=O [Example 241, 5-(7-(Difluoromethyl)-6-(1-methyl-1H-pyrazol-4-yl)-3,4-dihydroquinolin-1(2H)-yl)-7-(3,6-dihydro-2H-pyran-4-yl)-1,3-dimethyl-1,6-naphthyridin-2(1H)-one] showed a pIC50 [1] of 7.00 to 7.29 and an inhibition at 10 µM ([2]; BRD4 FL, compound at 10 μM) of 22%.
In the case of Cc1cc2c(N3CCN(C)c4cc(-c5cnn(C)c5)ncc43)cc(N3CCC4(COC4)C3)cc2n(C)c1=O [Example 150], the pIC50 [1] was greater than 7.30 and the pIC50 ([2]; BRD4 FL) was 5.30 to 5.70.
COc1cc(N2CCN(C)c3ccc(S(=O)(=O)NC(=O)C(F)(F)F)cc32)c2cc(C)c(=O)n(C)c2c1 [Example 107] was tested, and the pIC50 [1] was 7.00 to 7.29 and the inhibition at 10 µM ([2]; BRD4 FL, compound at 10 μM) was 15%.
For CNC(=O)C1CN(c2cc3c(cc2C#N)N(c2cc(OC)cc4c2cc(C)c(=O)n4C)CCN3C)C1 [Example 27], the pIC50 [1] was 7.00 to 7.29 and the pIC50 ([2]; BRD4 FL) was 5.30 to 5.70.
Compound COc1cc(N2CCOc3cc(-c4cnn(C)c4)ncc32)c2cc(C)c(=O)n(C)c2c1 [Example 170] has a pIC50 [1] greater than 7.30 and a pIC50 ([2]; BRD4 FL) of 5.30 to 5.70.
In the case of CONC(=O)COc1cc(N2CCN(C)c3cc(-c4cnn(C)c4)ccc32)c2cc(C)c(=O)n(C)c2c1 [Example 73, 2-((1,3-Dimethyl-5-(4-methyl-6-(1-methyl-1H-pyrazol-4-yl)-3,4-dihydroquinoxalin-1(2H)-yl)-2-oxo-1,2-dihydroquinolin-7-yl)oxy)-N-methoxyacetamide], the pIC50 [1] was greater than 7.30 and the pIC50 ([2]; BRD4 FL) was 5.30 to 5.70.
With Cc1cc2c(N3CCN(C)c4cc(F)c(S(N)(=O)=O)cc43)cc(N3CCOCC3)cc2n(C)c1=O [Example 88] the pIC50 [1] was greater than 7.30 and the pIC50 ([2]; BRD4 FL) was 5.30 to 5.70.
Compound CC(=O)N1CCC(c2cc(N3CCN(C)c4cc(-c5cnn(C)c5)ncc43)c3cc(C)c(=O)n(C)c3c2)CC1 [Example 153] has a pIC50 [1] greater than 7.30 and an inhibition at 10 µM ([2]; BRD4 FL, compound at 10 μM) of 45%.
With Cc1cc2c(N3CCN(C)c4cc(-c5cnn(C)c5)ncc43)nc(N3CC4(COC4)C3)cc2n(C)c1=O [Example 220] the pIC50 [1] was less than 8.00 and the pIC50 ([2]; BRD4 FL) was 5.30 to 5.70.
Work on COc1cc(N2CCN(C)c3cc(C4CC=NO4)c(S(N)(=O)=O)cc32)c2cc(C)c(=O)n(C)c2c1 (stereo not shown) [Example 91, 7-(4,5-Dihydroisoxazol-5-yl)-4-(7-methoxy-1,3-dimethyl-2-oxo-1,2-dihydroquinolin-5-yl)-1-methyl-1,2,3,4-tetrahydroquinoxaline-6-sulfonamide] yielded a pIC50 [1] greater than 7.30 and a pIC50 ([2]; BRD4 FL) of 5.30 to 5.70.
Work on Cc1cc2c(N3CCN(C)c4cc(-c5cnn(C)c5)ncc43)cccc2n(C)c1=O [Example 131] yielded a pIC50 [1] of less than 8.00 and an inhibition at 10 µM ([2]; BRD4 FL, compound at 10 μM) of 52%.
CC(=O)N1CCN(c2cc3c(cc(C)c(=O)n3C)c(N3CCCc4cc(-c5cnn(C)c5)c(C(F)F)cc43)n2)CC1 [Example 200, 7-(4-Acetylpiperazin-1-yl)-5-(7-(difluoromethyl)-6-(1-methyl-1H-pyrazol-4-yl)-3,4-dihydroquinolin-1(2H)-yl)-1,3-dimethyl-1,6-naphthyridin-2(1H)-one] gave a pIC50 [1] greater than 7.30 and a pIC50 ([2]; BRD4 FL) of 5.30 to 5.70.
With Cc1cc2c(N3CCCN(C)c4cc(-c5cnn(C)c5)c(C#N)cc43)cccc2[nH]c1=O [Example 5] the inhibition at 10 µM ([1]; compound at 10 μM) was 38% and the inhibition at 10 µM ([2]; BRD4 FL, compound at 10 μM) was 48%.
Work on Cc1cc2c(N3CCN(C)c4cc(-c5cnn(C)c5)ncc43)cc(N3C[C@@H](C)O[C@@H](C)C3)cc2n(C)c1=O [Example 133] yielded a pIC50 [1] of 7.00 to 7.29 and a pIC50 ([2]; BRD4 FL) of 5.30 to 5.70.
Work on CNC(=O)N1CCN(c2cc(OC)cc3c2cc(C)c(=O)n3C)c2cc(C#N)c(-c3cnn(C)c3)cc21 [Example 65, 6-Cyano-4-(7-methoxy-1,3-dimethyl-2-oxo-1,2-dihydroquinolin-5-yl)-N-methyl-7-(1-methyl-1H-pyrazol-4-yl)-3,4-dihydroquinoxaline-1(2H)-carboxamide] yielded a pIC50 [1] greater than 7.30 and a pIC50 ([2]; BRD4 FL) of 5.30 to 5.70.
COc1cc(N2CCN(C)c3ccc(S(C)(=O)=O)cc32)c2cc(C)c(=O)n(C)c2c1 [Example 100] showed a pIC50 [1] of 7.00 to 7.29 and a pIC50 ([2]; BRD4 FL) of 5.30 to 5.70.
In the case of CC(=O)NS(=O)(=O)c1ccc2c(c1)N(c1cccc3c1cc(C)c(=O)n3C)CCN2C [Example 103, N-((4-(1,3-dimethyl-2-oxo-1,2-dihydroquinolin-5-yl)-1-methyl-1,2,3,4-tetrahydroquinoxalin-6-yl)sulfonyl)acetamide], the pIC50 [1] was less than 8.00 and the inhibition at 10 µM ([2]; BRD4 FL, compound at 10 μM) was 36%.
With COc1cc(N2CCCc3cc(N4CCN(C(C)=O)CC4)c(C#N)cc32)c2cc(C)c(=O)n(C)c2c1 [Example 182] the pIC50 [1] was greater than 7.30 and the pIC50 ([2]; BRD4 FL) was 5.30 to 5.70.
Cc1cc2c(N3CCCc4cc(-c5cnn(C)c5)c(C(F)F)cc43)nc(N3C[C@@H]4C[C@H]3CO4)cc2n(C)c1=O [Example 219] gave a pIC50 [1] greater than 7.30 and a pIC50 ([2]; BRD4 FL) of 5.30 to 5.70.
COc1cc(N2CCN(C)c3cc(N4CCC(C)(N)CC4)c(C#N)cc32)c2cc(C)c(=O)n(C)c2c1 [Example 29] was tested, and the pIC50 [1] was greater than 7.30 and the pIC50 ([2]; BRD4 FL) was 5.30 to 5.70.
Work on Cc1cc2c(N3CCN(C)c4cc(-c5cnn(C)c5)ncc43)cc(C3CCCCC3)cc2n(C)c1=O [Example 152] yielded a pIC50 [1] of 7.00 to 7.29 and an inhibition at 10 µM ([2]; BRD4 FL, compound at 10 μM) of 48%.
In the case of Cc1cc2c(N3CCN(C)c4cc(F)c(S(N)(=O)=O)cc43)cccc2n(C)c1=O [Example 87], the pIC50 [1] was 7.00 to 7.29 and the pIC50 ([2]; BRD4 FL) was 5.30 to 5.70.
Work on Cc1cc2c(N3CCN(C)c4cc(-c5cnn(C)c5)ncc43)cc(OCC(F)F)cc2n(C)c1=O [Example 130] yielded a pIC50 [1] of 7.00 to 7.29 and an inhibition at 10 µM ([2]; BRD4 FL, compound at 10 μM) of 48%.
COc1cc2c(cc(C)c(=O)n2C)c(N2CCCc3cc(-c4cnn(C)c4)c(C(F)F)cc32)n1 [Example 233, 5-(7-(Difluoromethyl)-6-(1-methyl-1H-pyrazol-4-yl)-3,4-dihydroquinolin-1(2H)-yl)-7-methoxy-1,3-dimethyl-1,6-naphthyridin-2(1H)-one] was tested, and the pIC50 [1] was 7.00 to 7.29 and the pIC50 ([2]; BRD4 FL) was 5.30 to 5.70.
In the case of COc1cc(N2CCN(C)c3cc(F)c(S(=O)(=O)NC(C)=O)cc32)c2cc(C)c(=O)n(C)c2c1 [Example 104], the pIC50 [1] was greater than 7.30 and the inhibition at 10 µM ([2]; BRD4 FL, compound at 10 μM) was 48%.
Work on Cc1cc2c(N3CCN(C)c4cc(-c5cnn(C(C)C)c5)ncc43)cc(N3CCOCC3)cc2n(C)c1=O [Example 136] yielded a pIC50 [1] greater than 7.30 and a pIC50 ([2]; BRD4 FL) of 5.30 to 5.70.
With Cc1cc2c(N3CCN(C)c4cc(-c5cnn(C)c5)ncc43)cc(OC(F)F)cc2n(C)c1=O [Example 129] the pIC50 [1] was less than 8.00 and the pIC50 ([2]; BRD4 FL) was 5.30 to 5.70.
Cc1cc2c(N3CCN(C(F)F)c4cc(-c5cnn(C)c5)ncc43)cc(N3CCOCC3)cc2n(C)c1=O [Example 163, 5-(1-(Difluoromethyl)-7-(1-methyl-1H-pyrazol-4-yl)-2,3-dihydropyrido[3,4-b]pyrazin-4(1H)-yl)-1,3-dimethyl-7-morpholinoquinolin-2(1H)-one] was tested, and the pIC50 [1] was less than 8.00 and the inhibition at 10 µM [2] was 16%.
COc1cc(N2CCN(C)c3ccc(C(C)=O)cc32)c2cc(C)c(=O)n(C)c2c1 [Example 79, 5-(7-Acetyl-4-methyl-3,4-dihydroquinoxalin-1(2H)-yl)-7-methoxy-1,3-dimethylquinolin-2(1H)-one] gave a pIC50 [1] of 7.00 to 7.29 and an inhibition at 10 µM ([2]; BRD4 FL, compound at 10 μM) of 56%.
In the case of COc1cc(N2CCN(C3CC3)c3ccc(S(N)(=O)=O)cc32)c2cc(C)c(=O)n(C)c2c1 [Example 96], the pIC50 [1] was 7.00 to 7.29 and the pIC50 ([2]; BRD4 FL) was 5.30 to 5.70.
Cc1cc2c(N3CCNc4cc(-c5cnn(C)c5)ncc43)cc(N3CCOCC3)cc2n(C)c1=O [Example 161, 1,3-Dimethyl-5-(7-(1-methyl-1H-pyrazol-4-yl)-2,3-dihydropyrido[3,4-b]pyrazin-4(1H)-yl)-7-morpholinoquinolin-2(1H)-one] showed a pIC50 [1] of less than 8.00 and an inhibition at 10 µM ([2]; BRD4 FL, compound at 10 μM) of 16%.
For Cc1cc2c(N3CCN(C)c4cc(-c5cnn(C)c5)ncc43)cc(N3CCOC(C)C3)cc2n(C)c1=O (stereo not shown) [Example 147], the pIC50 [1] was 7.00 to 7.29 and the inhibition at 10 µM ([2]; BRD4 FL, compound at 10 μM) was 66%.
CCC(=O)NS(=O)(=O)c1ccc2c(c1)N(c1cc(OC)cc3c1cc(C)c(=O)n3C)CCN2C [Example 106] showed a pIC50 [1] of 7.00 to 7.29 and an inhibition at 10 µM ([2]; BRD4 FL, compound at 10 μM) of 16%.
In the case of CC1Cc2c(cc(N3CC[C@@H](O)C3)cc2N2CCCc3cc(-c4cnn(C)c4)c(C(F)F)cc32)N(C)C1=O (stereo partly drawn) [Example 193, 7-(Difluoromethyl)-7′-((R)-3-hydroxypyrrolidin-1-yl)-1′,3′-dimethyl-6-(1-methyl-1H-pyrazol-4-yl)-3,3′,4,4′-tetrahydro-2H-[1,5′-biquinolin]-2′(1′H)-one], the pIC50 [1] was less than 8.00 and the pIC50 ([2]; BRD4 FL) was 5.30 to 5.70.
For Cc1cc2c(N3CCCc4cc(-c5cnn(C)c5)c(C(F)F)cc43)nc(N3CC4CCC(C3)O4)cc2n(C)c1=O [Example 217], the pIC50 [1] was greater than 7.30 and the inhibition at 10 µM ([2]; BRD4 FL, compound at 10 μM) was 46%.
For Cc1cc2c(N3CCCc4cc(-c5nnn(C)n5)c(C(F)F)cc43)nc(N3CCOCC3)cc2n(C)c1=O [Example 226], the pIC50 [1] was 7.00 to 7.29 and the pIC50 ([2]; BRD4 FL) was 5.30 to 5.70.
Work on CNC(=O)c1ccc(-c2cc3c(cc2C#N)N(c2cc(OC)cc4c2cc(C)c(=O)n4C)CCC3)cn1 [Example 183] yielded a pIC50 [1] greater than 7.30 and a pIC50 ([2]; BRD4 FL) of 5.30 to 5.70.
